# Data taken from patent publication US9056891B2, “Synthetic peptide inhibitors of Wnt pathway” (The United States of America, as represented by the …, priority 2010, dated 2015).
# *1 amine or outer side, *2 acyl side, *3 side chain or, on linkers, in order; H or OH if unused. Where a SMILES comes first, the peptide text is derived from it. Bridges are numbered along the chain shown (N, C = ends). Where no end group is shown, it is not given here. [ ]: non-standard residue; d: D form. The star is where a group is joined. X1 = CCCCCCCCCCCCC(C)(N[*:1])C(=O)[*:2]; Palmitoyl = CCCCCCCCCCCCCCCC(=O)*; Aib = CC(C)(N)C(=O)O
# Key:
# HeLa cells = format: cell-based; conditions: 48 h
# Procedure: (§1) HeLa, U3A, RKO, HCT-116, and HT-29 cells were exposed to the CT-HC-1, CT-HC-3, CT-HC-5, and CT-HC-8 inhibitors of Example 1 for 48 hours in medium containing 1% bovine fetal serum, and the resulting cell number was evaluated using a MTT assay. Each of these cell lines is relevant to the evaluation of Wnt signaling. Cervical carcinoma HeLa cells overexpress β-catenin (see, e.g., Lee et al., Int. J. Cancer, 124(2): 287-297 (2009); and Lee et al., Gynecol. Oncol., 109(2): 270-274 (2008)). β-catenin is activated in colon carcinoma RKO due to mutation in CDX2 (see, e.g., Dang et al., Oncogene, 20(35): 4884-4890 (2001)). Colon adenocarcinoma HCT116 has elevated mutated β-catenin; however, it was found in the past to be resistant to down regulation of β-catenin (see, e.g., Chan et al., Proc. Natl. Acad. Sci. USA, 99(12): 8265-8270 (2002); and Handeli et al., Mol. Cancer Ther., 7(3): 521-529 (2008)). Colon carcinoma HT-29 has truncated adenomatous polyposis coli (APC) protein, which is a common cause of canonical Wnt pathway activation in colon malignancies. Fibrosarcoma U3A cells are STAT1-negative and have uncharacterized status of Wnt pathway.
# (§2) The ability of CT-HC-1 to inhibit growth and to kill cancer cells at different concentrations was further investigated in HeLa, U3A, RKO, HCT-116, and HT-29 cells. The cells were stained with Promega Non-Radioactive Cell Proliferation Assay Kit (MTT) according to the manufacture's protocol. The absorbance of the wells was determined at 544 nm by a FLUOstar/POLARstar Galaxy (BMG Lab Technologies GmbH) Microplate Reader. The assays were performed on control (C) and test (T) cells. Untreated cells were used as a control. Cellular responses were calculated from the data using the following formula: 100×[(T−T0)/(C−T0)] for T>T0 and 100×[(T−T0)/T0] for T<T0. T0 corresponds to cell density at the time of drug addition.
# U3A cells = format: cell-based; conditions: 48 h
# Procedure: as §1, §2
# RKO cells = format: cell-based; conditions: 48 h
# Procedure: as §1, §2
# HT-29 cells = format: cell-based; conditions: 48 h
# Procedure: as §1, §2
# 4T1 cells = test: Toxicity (growth inhibition) for 4T1 cells; format: cell-based, mouse
# Procedure: To identify a mouse model for preclinical development of compounds, mouse cell lines were tested for (1) growth inhibition by the compounds and (2) the levels of constitutive Wnt signaling TCF-reporter activity using transfection of cell with TCF/LEF-responsive firefly luciferase construct. The data further confirmed that sensitivity to compounds correlated well with the levels of canonical Wnt signaling.
# Based on the data, mouse breast cancer cell line 4T1 was selected for in vivo testing.
# (§3) Further optimization and testing of inhibitors was performed using this cell line. Table 5 presents toxicity data for select inhibitors for 4T1 cells and human colon cancer cell line SW-480, wherein GI50 is the concentration providing 50% growth inhibition and TGI is the total growth inhibition.
# SW480 cells = test: Toxicity (growth inhibition) for SW-480 cells; format: cell-based, human; design: unit not given here
# Procedure: as §3
# [1] = test system: MM cells (tubule formation); test: MM cell differentiation, co-cultivation with embryonic spinal cord inductor; format: cell-based; conditions: MM cells co-cultivated with embryonic spinal cord
# Text: (§4) To determine if the loss of β-catenin affects differentiation, MM cells were co-cultivated with inductor, embryonic spinal cord, and treated with CT-HC-1. In these cultures, tubule formation was unaffected. This finding was supported by semi-quantitative RT-PCR analysis of BIO-induced MM cells in which levels of epithelial markers Lim-1 and E-cadherin were unaltered with CT-HC-1 treatment. […] This observation is consistent with reports describing an antagonistic relationship between canonical and non-canonical Wnt mechanisms (see, e.g., Park et al., Development, 132: 2533-2539 (2007); and Schmidt-Ott et al., Development, 132: 3177-3190 (2007).
# [2] = test system: Lim-1, E-cadherin, Axin-2 expression; test: Semi-quantitative RT-PCR of marker expression in MM cells; format: cell-based
# Text: as §4
# HCT-116 cells = format: cell-based, human; conditions: 48 h
# Procedure: as §1, §2
# [3] = test system: RKO, HT-29, HCT-116, SW-480, and SW-620 cells; test: Cell viability of colon cancer cells (FIGS. 2A-C); format: cell-based; conditions: increasing concentrations, HT-29, HCT-116, SW-480, SW-620
# Procedure: The concentration (μM) of the peptide inhibitor is indicated on the x-axis and the percent viability is indicated on the y-axis.
# A similar experiment was performed using RKO, HT-29, HCT-116, SW-480, and SW-620 cells. Colorectal adenocarcinoma SW-480 and SW-620 cells have truncated APC protein, which—as discussed above—is a common cause of canonical Wnt pathway activation in colon malignancies.
# [4] = test system: Wnt pathway (TOPflash reporter transcription); test: TOPflash dual luciferase reporter assay in primary metanephric mesenchyme (MM) cells; format: cell-based; conditions: 10 μM, 30 min pre-treatment, 24 hours
# Procedure: Primary metanephric mesenchyme (MM) cells were transfected with the Amaxa Nucleofector 96-well Shuttle System (Lonza Group Ltd, Basel, Switzerland). Briefly, 1×10^6 cells per transfection were resuspended in 20 μl of 96-well Nucleofector solutions. TOPflash luciferase plasmid (1 μg) and 0.1 μg pRL-TK-renilla plasmids (Promega, Madison, Wis., USA) were mixed with cell suspensions and transferred to the well of a 96-well Nucleocuvette module. Nucleofections were performed according to manufacturer's instructions using program DN-100.
# MM cells were pre-treated with or without CT-HC-1 (10 μM) for 30 min, and then exposed to GSK3 inhibitor BIO (500 nM) or Wnt3a conditioned medium (50%) (Wnt3aCM as described in Willert et al., Nature, 423: 448-452 (2003)) for 24 hours. Cells were lysed and assayed for reporter activity using a Dual luciferase assay system (Promega) and a Monolight 3010 Luminometer (Pharmagen, San Diego, Calif., USA).
# [5] = test system: HeLa, U3A, RKO, HCT-116, and HT-29 cells; test: MTT cell number versus concentration (FIG. 1); format: cell-based; conditions: HCT-116, HT-29
# Procedure: as §2
# β-catenin = test: Levels of total β-catenin in MM cells; format: cell-based
# Procedure: Cells were also evaluated for levels of total β-catenin. In these studies, β-catenin was degraded within 3 hours of treatment with CT-HC-1.
# 4T1 breast cancer = 4T1 breast cancer mouse model; format: in vivo; conditions: 2 mg/kg subcutaneously three times a week, alone, after three injections
# Procedure: CT-HC-11 has been tested in 4T1 breast cancer mouse model at two doses: 10 and 2 mg/kg injected subcutaneously three times a week alone or in combination with weekly gemcitabine (75 mg/kg).
# [6] = cells exposed only to peptide, no inductive ligand
compound,measurement,setting,value
"CCCCCCCCCCCCCCCC(=O)NCCCC[C@H](N)C(=O)N[C@@H](Cc1ccc(O)cc1)C(=O)N[C@@H](CCCCN)C(=O)N[C@@H](CCCCN)C(=O)N[C@@H](CCCNC(=N)N)C(=O)N[C@@H](CC(C)C)C(=O)N[C@@H](CO)C(=O)N[C@H](C(=O)N[C@@H](CCC(=O)O)C(=O)N[C@@H](CC(C)C)C(=O)N[C@H](C(=O)N[C@@H](CO)C(=O)N[C@@H](CO)C(=O)N[C@@H](CC(C)C)C(=O)N[C@@H](Cc1ccccc1)C(=O)N[C@@H](CCCNC(=N)N)C(=O)O)[C@@H](C)O)C(C)C [CT-HC-1, Pal-ε-KYKKRLSVELTSSLFR] (H-K(Palmitoyl)YKKRLSVELTSSLFR-OH; N-terminus and C-terminus assumed)",GI50,HeLa cells,0.63 ± 0.025 µM
same,GI50,U3A cells,0.6 ± 0.04 µM
same,GI50,RKO cells,1.3 ± 0.05 µM
same,GI50,HT-29 cells,1.4 ± 0.05 µM
same,4T1 cells TGI (total growth inhibition),4T1 cells,> 5 µM
same,SW480 cells TGI (total growth inhibition),SW480 cells,5
same,tubule formation,[1],unaffected
same,levels of epithelial markers Lim-1 and E-cadherin,[2]; BIO-induced MM cells,unaltered
same,Axin-2 expression,[2]; [6],decrease
same,expression of Lim-1 and E-cadherin,[2]; [6],enhanced expression
same,GI50,HCT-116 cells,3.4 ± 0.25 µM
same,cell viability,[3],decreased viability
same,BIO-induced transcription (TOPflash reporter),[4]; BIO 500 nM,completely blocked
same,Wnt3aCM-induced transcription (TOPflash reporter),[4]; Wnt3a conditioned medium 50%,completely blocked
same,cell number as compared to untreated cells,[5],decreased cell numbers in a concentration dependent manner
same,time of treatment within which β-catenin was degraded,β-catenin,≤ 3 h
same,β-catenin levels 24 hours after treatment,β-catenin; 24 hours,had not recovered
same,β-catenin levels in presence of proteasomal inhibitor MG132,β-catenin; with MG132,stabilized
"CCCCCCCCCCCCCCCC(=O)NCCCC[C@H](N)C(=O)N[C@@H](Cc1ccc(O)cc1)C(=O)N[C@@H](CCCCN)C(=O)N[C@@H](CCCCN)C(=O)N[C@@H](CCCNC(=N)N)C(=O)N[C@@H](CC(C)C)C(=O)N[C@@H](CO)C(=O)N[C@H](C(=O)N[C@@H](CCC(N)=O)C(=O)N[C@@H](CC(C)C)C(=O)N[C@H](C(=O)N[C@@H](CO)C(=O)N[C@@H](CO)C(=O)N[C@@H](CC(C)C)C(=O)N[C@@H](Cc1ccccc1)C(=O)N[C@@H](CCCNC(=N)N)C(=O)O)[C@@H](C)O)C(C)C [CT-HC-3, Pal-ε-KYKKRLSVQLTSSLFR] (H-K(Palmitoyl)YKKRLSVQLTSSLFR-OH; N-terminus and C-terminus assumed)",GI50,HeLa cells,0.8 ± 0.08 µM
same,GI50,U3A cells,0.65 ± 0.045 µM
same,GI50,RKO cells,1.8 ± 0.15 µM
same,GI50,HT-29 cells,2.8 ± 0.1 µM
same,4T1 cells TGI (total growth inhibition),4T1 cells,> 5 µM
same,SW480 cells TGI (total growth inhibition),SW480 cells,0.5
same,GI50,HCT-116 cells,4 ± 0.3 µM
same,cell viability,[3],decreased viability
"CCCCCCCCCCCCC(C)(N)C(=O)N[C@@H](Cc1ccc(O)cc1)C(=O)N[C@@H](CCCCN)C(=O)N[C@@H](CCCCN)C(=O)N[C@@H](CCCNC(=N)N)C(=O)N[C@@H](CC(C)C)C(=O)N[C@@H](CO)C(=O)N[C@H](C(=O)N[C@@H](CCC(=O)O)C(=O)N[C@@H](CC(C)C)C(=O)N[C@H](C(=O)N[C@@H](CO)C(=O)N[C@@H](CO)C(=O)N[C@@H](CC(C)C)C(=O)N[C@@H](Cc1ccccc1)C(=O)N[C@@H](CCCNC(=N)N)C(=O)O)[C@@H](C)O)C(C)C (stereo partly shown) [CT-HC-8, Doa-YKKRLSVELTSSLFR] (H-[X1]YKKRLSVELTSSLFR-OH; N-terminus and C-terminus assumed)",GI50,HeLa cells,3.2 ± 0.4 µM
same,GI50,U3A cells,> 5 µM
same,GI50,RKO cells,> 5 µM
same,GI50,HT-29 cells,> 5 µM
same,4T1 cells TGI (total growth inhibition),4T1 cells,> 5 µM
same,SW480 cells TGI (total growth inhibition),SW480 cells,0.4
same,GI50,HCT-116 cells,> 5 µM
same,cell viability,[3],decreased viability
"Ac-YKKRLS+ELT+SLFR (Ac-YKKRLSXELTXSLFR; staple 7-11; not fully specified (residues 7, 11); printed as Ac-YKKRLS+ELT+SLFR) [CT-HC-9]",4T1 cells TGI (total growth inhibition),4T1 cells,> 5 µM
same,SW480 cells TGI (total growth inhibition),SW480 cells,>5
Cap-TRFLSSTLQVSLRKK-NH2 [CT-HC-22],4T1 cells TGI (total growth inhibition),4T1 cells,> 5 µM
Lau-TRFLSSTLQVSLRKK-NH2 [CT-HC-23],4T1 cells TGI (total growth inhibition),4T1 cells,3.5 µM
Pal-Aib-TRFLSSTLQVSLRKK-NH2 [CT-HC-11],4T1 cells TGI (total growth inhibition),4T1 cells,3 µM
same,tumor volume,4T1 breast cancer,significant reduction in tumor volume
Pal-Aib-YKKRLSVELTSSLFR (Palmitoyl-[Aib]YKKRLSVELTSSLFR) [CT-HC-13],4T1 cells TGI (total growth inhibition),4T1 cells,> 5 µM
Pal-Aib-YKKRLSVQLTSSLFR (Palmitoyl-[Aib]YKKRLSVQLTSSLFR) [CT-HC-19],4T1 cells TGI (total growth inhibition),4T1 cells,> 5 µM
Pal-NKPQDYKKRLSVELTSSLFR [CT-HC-2],4T1 cells TGI (total growth inhibition),4T1 cells,> 5 µM
same,SW480 cells TGI (total growth inhibition),SW480 cells,>5
Pal-RFLSSTLQVSLRKK-NH2 [CT-HC-20],4T1 cells TGI (total growth inhibition),4T1 cells,> 5 µM
Pal-TRFLSSTLEVSLRKKY-NH2 [CT-HC-10],4T1 cells TGI (total growth inhibition),4T1 cells,2 µM
same,SW480 cells TGI (total growth inhibition),SW480 cells,2.2
Pal-TRFLSSTLQVSLRKK-NH2 [CT-HC-15],4T1 cells TGI (total growth inhibition),4T1 cells,3.6 µM
Pal-YKKRLSVELTSSLFR (Palmitoyl-YKKRLSVELTSSLFR) [CT-HC-12],4T1 cells TGI (total growth inhibition),4T1 cells,> 5 µM
same,SW480 cells TGI (total growth inhibition),SW480 cells,>5
Pal-YKKRLSVELTSSLFRTEPMAW (Palmitoyl-YKKRLSVELTSSLFRTEPMAW) [CT-HC-16],4T1 cells TGI (total growth inhibition),4T1 cells,> 5 µM
same,SW480 cells TGI (total growth inhibition),SW480 cells,>5
